{"source": "patent US20030087830A1", "about": "“Low molecular weight components of cartilage, complexes of metals with amino acids, DI-peptides and analogs thereof; processes for preparation and therapeutic uses thereof” (priority 2001, published 2003)", "key": {"[1]": {"system": "bFGF-stimulated blood vessel formation in Matrigel", "test": "Matrigel in vivo angiogenesis assay", "set-up": "species or system C57B1/6 mice", "conditions": "intra-peritoneal daily 10 days", "description": "The Matrigel™ in vivo assay was performed to determine the ability of test samples to inhibit blood vessel formation (antiangiogenic activity) and to establish their bioavailability in vivo.\nBriefly, liquid Matrigel™ (Becton Dickinson, Bedford, Mass.) was maintained at 4° C. and mixed thoroughly for at least 3 hours with 1,500 ng/ml basic fibroblast growth factor (bFGF) (R&D Systems, Minneapolis, Minn.) used as the primary angiogenic stimulus. The mixture (0.5 ml) was injected subcutaneously into the ventral midline of C57B1/6 mice, and treatment with different test samples or saline solution was initiated the same day. Additional animals were also injected with Matrigel™ containing no bFGF to serve as baseline controls. The animals were treated daily for a 10 day period (intra-peritonealy, 0.2 ml of each dose). At day 11, animals were injected with FITC-dextran 20 min prior to euthanizing treated mice. Matrigel™ gels were removed along with underlying peritoneum and prepared for FITC-dextran detection by fluorimetry. The concentration of FITC-dextran in the gels was calculated from a known concentration of FITC-dextran using a standard curve. The FITC-dextran content of the gels from compound-treated animals and controls was expressed as a percent of the positive bFGF-treated controls after the baseline control of FITC-dextran levels were subtracted from all groups."}, "human dermal fibroblasts": {"system": "human dermal fibroblasts", "test": "Fibroblast proliferation", "type": "cell-based", "conditions": "48 hours; free amino acids and Glu-Trp 2.5 mM, CuCl2 1.25 mM", "description": "(§1) Endothelial and tumor cell proliferation assays were performed to determine the ability of test samples to inhibit endothelial cell proliferation (antiangiogenic activity), normal cell proliferation,and tumor cell proliferation.\n(§2) Endothelial cells (Human umbilical vein endothelial cells (HUVEC), bovine aortic endothelial cells (BAEC)), skeletal muscle cells, human dermal fibroblasts (all from Clonetics, Walkersville, Md.) were respectively maintained in EBM-2, MDEM, SKGM and FGFM-2 complete media according to manufacturer's instructions. Tumor rat glioblastoma cell line (C6) was maintained in DMEM (Sigma, Oaksville, Ontario) supplemented with 10% fetal calf serum (FCS) and antibiotics in 5% CO2. Briefly, cells seeded in 96-well sterile tissue culture dishes were treated with increasing concentrations of different test samples for a period of 48 hours at 37° C. Cell number was then evaluated by a calorimetric assay using the cell proliferation reagent tetrazolium salt and the fluorimetric assay using DNA dye (Hoescht) according to the procedure established by the manufacturer (Boehringer Mannhein). The conversion of these tetrazolium salts into formazan occurs only in metabolically active cells. The percentage of cell inhibition was determined by comparison to untreated cells."}, "[2]": {"system": "blood vessel formation in the vitelline membrane of chick embryo", "test": "Embryonic Vascularization Test (EVT)", "type": "in vivo", "description": "The Embryonic Vascularization Test (EVT) was performed to determine the ability of test samples to inhibit the formation of new blood vessels (antiangiogenic activity).\nThe normal development of a chick embryo involves the formation of an external vascular system located in the vitelline membrane which carries nutrients from the vitellus (yolk) to the developing embryo. When placed onto the vitelline membrane, antiangiogenic substances can inhibit the blood vessel formation that occurs in the vitelline membrane. Briefly, methylcellulose discs (an inert solid and transparent matrix) containing different test samples were placed on the external border of the vascular perimeter of the vitelline membrane, where the angiogenic process occurs. Vascularization was assessed 24 hours after disc deposition, and results were expressed as the percent of embryos in which blood vessel formation was affected. The blood vessel formation was considered affected when its growing path was either deviated, or diminished or when there was no growth observed beyond the disc as compared to the negative control. The results are expressed as 0, +, and ++ where 0 is for a lower response than 25 percent of the eggs; + is for a response between 25 and 50 percent; and ++ is for an antiangiogenic response observed in more than 50 percent of the eggs.\n(§3) According to the endothelial cell proliferation assay, the relative effectiveness of two compounds is compared by reference to the EC50 thereof. The EC50 is the concentration of compound at which the number of endothelial cells is reduced by 50% as compared to control. The efficacy of the test samples in EVT is established by the percent of eggs with altered angiogenesis at a given inhibitor dose of 0.6 mg of copper equivalent (see FIG. 6 for examples). A comparison of the antiangiogenic activity of the compounds of the present invention with divalent metal salts (CuCl2, MgCl2, ZnCl2, CoCl2) and uncoupled alpha-amino acids, alpha-imino acids, dipeptides, and nitrogenated molecules comprising a carboxylic acid group, such as creatine, is provided to illustrate that the formation of the amino acid-copper complex gives rise to complexes having antiangiogenic activity."}, "[3]": {"test": "Affinity of the amino acid with copper", "type": "physicochemical"}, "[4]": {"system": "Lewis lung carcinoma clone M27", "test": "Lewis Lung Carcinoma metastatic mouse model (LLC)", "type": "in vivo, C57BL/10 female mice", "conditions": "2.5 mg/kg, intraperitoneal daily for two weeks; lung surface metastases", "excerpt": "The Lewis Lung Carcinoma mouse model (LLC) was used to determine the ability of different test samples to inhibit the formation of metastases within the lung. The Lewis lung carcinoma clone M27, with a high metastatic potential to the lung, was established by Dr P. Brodt (Brodt P, Characterization of two highly metastatic variants of Lewis lung carcinoma with different organ specificities. Cancer Res., 46: 2442, 1986). This model is well established and is known for its predictive correlation between in vitro and in vivo activity. Briefly, LLC cells were transplanted subcutaneously in the axillary region of the right flank of C57BL/10 female mice (Charles River Inc.) When the primary tumor reached a size of 0.5-1.0 cm^3 (day 10 post-inoculation), the tumor was carefully separated from the surrounding healthy tissues. Treatment with different test samples started the day following tumor removal (day 11 post-inoculation). Saline or different test samples were administered daily for two weeks by intraperitoneal injection (0.2 ml of each dose). As previous experiments had shown that a period of approximately two weeks after removal of the primary tumor was sufficient to obtain an average of 30 to 50 nodules on the lung surface, animals were sacrificed in a CO2 chamber two weeks later. Following autopsy, both lungs were removed, weighed and fixed in 10% Bouin's fixative. Lung surface metastases were counted using a stereomicroscope (4×)."}, "[5]": {"system": "Endothelial cells (HUVEC, BAEC)", "test": "Endothelial cell proliferation", "type": "cell-based, human / bovine", "conditions": "48 hours; copper equivalent; NA = less than 50% at 1.25 mM copper equivalent; read-out: EC proliferation (EC50 mM)", "description": "as §1, §2, §3"}}, "data": [{"substance": "L-Asp Cu L-Asp [Compound 6]", "values": [{"measurement": "Matrigel in vivo % of inhibition", "setting": "[1]; 0.14 mg/Kg equivalent copper", "result": "27.7% of inhibition"}, {"measurement": "Matrigel in vivo % of inhibition", "setting": "[1]; 1.14 mg/Kg equivalent copper", "result": "22.6% of inhbition"}, {"measurement": "Matrigel in vivo % inhibition", "setting": "[1]; 1.4 mg/Kg equivalent copper", "result": 22.6, "unit": "%"}, {"measurement": "EC50", "setting": "human dermal fibroblasts", "result": 1.15, "unit": "mM"}, {"measurement": "EVT (% of inhibition)", "setting": "[2]; 0.6 mg copper equivalent, percent of embryos with affected blood vessel formation, 24 hours after disc deposition", "result": "±38% of inhibition"}, {"measurement": "EVT (% of inhibition)", "setting": "[2]; activity at 0.6 mg equivalent Copper", "result": "+ (+ between 25-50% of inhibition)"}, {"measurement": "Affinity of the AA with Cooper", "setting": "[3]", "result": 16.0}, {"measurement": "Antimetastatic activity (% inhibition) (at 2.5 mg/kg of Cu-complex)", "setting": "[4]", "result": 26.9, "unit": "%"}, {"measurement": "EC50", "setting": "[5]", "result": 0.29, "unit": "mM"}]}]}
